Results: US5798381A, “Biologically active bistramides, process for their production and their applications in therapy” (Institut Francais de Recherche Scientifique pour le …, priority 1993, dated 1998)
Converted amounts (≈) assume the structure as drawn.

Key:
KB = assay: Cytotoxicity, 50% inhibition of cell growth, KB; format: cell-based; conditions: Homo sapiens, read-out: IC50 (50% inhibition of cell growth)
Method: (§1) The cytoxicity results are recorded hereafter as the IC50 in μg/ml (concentration corresponding to a 50% inhibition of cell growth) on 6 tumoural lines namely KB, P388, P388/dox (resistant to doxorubicin), B16 and H429 and NSCLC-N6, which are human cells of non-small cell bronchopulmonary carcinoma type.
(§2) The determinations were carried out according to the protocol given in Cancer Chemother. Pharmacol. (1991) 28:283-292 by Roussakis et al.

P388/dox (p388r) = assay: Cytotoxicity, 50% inhibition of cell growth, P388/dox (resistant to doxorubicin); format: cell-based; conditions: Mus musculus
Method: as §1, §2

HT 29 = assay: Cytotoxicity, 50% inhibition of cell growth, HT 29; format: cell-based; conditions: Homo sapiens; HT 29; read-out: IC50 (50% inhibition of cell growth)
Method: as §1, §2

[1] = system: Plasmodium vinckei petteri; assay: Comparison of monodose and multidose therapeutic schema; format: in vivo, Plasmodium vinckei petteri in SWISS female white mice
Method: The object is to monitor the parasitemia on a daily basis and to evaluate the inhibition of the parasitemia according to the therapeutic schema adopted for the treatment. The following are shown: the morphological modifications of the parasite by the parasitic formula, calculation of the parasitic formula is also carried out on smears and allows the evaluation of each stage:ring, young trophozoite, middle trophozoite, old trophozite for 100 red blood corpuscles.
a) after infestation, three batches of five mice are constituted, namely
a so-called monodose batch, for which a single injection of bistramide D (15 mg/kg) is given to the mouse on D0
a so-called multidose batch, where the injection of bistramide D is carried out by administering five doses on D0, D1, D2, D3, D4 respectively (total dose 15 mg/kg)
b) the preparation and reading of the smears is carried out every day for 21 days.
The percentage of parasitemia and the percentage inhibition of the development of the parasite is determined for each batch.

C/C=C/C(O)CC1CCC(C)C(CC(=O)NCC(O)C(C)C(=O)NCCCC2OC3(CCCC(CCC(C)/C=C(\C)C(C)O)O3)CCC2C)O1 (centres unmarked) [Bistramide D]
IC50 (KB): 10 µg/mL (≈ 14.1 µM)
IC50 (P388/dox (p388r)): 5.82 µg/mL (≈ 8.23 µM)
IC50 (HT 29): 2.76 µg/mL (≈ 3.9 µM)
percentage inhibition of the development of the parasite ([1]; Monodose (15 mg/kg on D0), D3): 51.5%
parasitemia ([1]; Monodose (15 mg/kg on D0), D3, controls 0.33): 0.16%
percentage inhibition of the development of the parasite ([1]; Monodose (15 mg/kg on D0), D4): 33.3%
parasitemia ([1]; Monodose (15 mg/kg on D0), D4, controls 1.2): 0.80%
percentage inhibition of the development of the parasite ([1]; Monodose (15 mg/kg on D0), D5): 36.3%
parasitemia ([1]; Monodose (15 mg/kg on D0), D5, controls 5.5): 3.5%
percentage inhibition of the development of the parasite ([1]; Monodose (15 mg/kg on D0), D7): 0%
parasitemia ([1]; Monodose (15 mg/kg on D0), D7, controls 50): 64%
percentage inhibition of the development of the parasite ([1]; Monodose (15 mg/kg on D0), D8): 16.4%
parasitemia ([1]; Monodose (15 mg/kg on D0), D8, controls 67): 56%
percentage inhibition of the development of the parasite ([1]; Monodose (15 mg/kg on D0), D9): 12.5%
parasitemia ([1]; Monodose (15 mg/kg on D0), D9, controls 48): 42%
percentage inhibition of the development of the parasite ([1]; Monodose (15 mg/kg on D0), D10): 0%
parasitemia ([1]; Monodose (15 mg/kg on D0), D10, controls 1): 1%
parasitic formula, old trophozoite (OT) ([1]; Monodose, D5, control 3%): 9%
parasitic formula, middle trophozoite (MT) ([1]; Monodose, D5, control 7%): 14%
parasitic formula, young trophozoite (YT) ([1]; Monodose, D5, control 17.5%): 37%
parasitic formula, ring stage (R) ([1]; Monodose, D5, control 72.5%): 40%
parasitic formula, old trophozoite (OT) ([1]; Monodose, D7, control 10%): 6%
parasitic formula, middle trophozoite (MT) ([1]; Monodose, D7, control 15%): 14%
parasitic formula, young trophozoite (YT) ([1]; Monodose, D7, control 17%): 31%
parasitic formula, ring stage (R) ([1]; Monodose, D7, control 58%): 47%
parasitic formula, old trophozoite (OT) ([1]; Multidose, D5, control 3%): 7%
parasitic formula, middle trophozoite (MT) ([1]; Multidose, D5, control 7%): 40%
parasitic formula, young trophozoite (YT) ([1]; Multidose, D5, control 17.5%): 28%
parasitic formula, ring stage (R) ([1]; Multidose, D5, control 72.5%): 25%
parasitic formula, old trophozoite (OT) ([1]; Multidose, D7, control 10%): 93%
parasitic formula, middle trophozoite (MT) ([1]; Multidose, D7, control 15%): 0%
parasitic formula, young trophozoite (YT) ([1]; Multidose, D7, control 17%): 0%
parasitic formula, ring stage (R) ([1]; Multidose, D7, control 58%): 7%
percentage inhibition of the development of the parasite ([1]; Multidoses (D0-D4, total 15 mg/kg), D3): 63.6%
parasitemia ([1]; Multidoses (D0-D4, total 15 mg/kg), D3, controls 0.33): 0.12%
percentage inhibition of the development of the parasite ([1]; Multidoses (D0-D4, total 15 mg/kg), D4): 83.3%
parasitemia ([1]; Multidoses (D0-D4, total 15 mg/kg), D4, controls 1.2): 0.2%
percentage inhibition of the development of the parasite ([1]; Multidoses (D0-D4, total 15 mg/kg), D5): 70.9%
parasitemia ([1]; Multidoses (D0-D4, total 15 mg/kg), D5, controls 5.5): 1.6%
percentage inhibition of the development of the parasite ([1]; Multidoses (D0-D4, total 15 mg/kg), D7): 85.2%
parasitemia ([1]; Multidoses (D0-D4, total 15 mg/kg), D7, controls 50): 7.4%
percentage inhibition of the development of the parasite ([1]; Multidoses (D0-D4, total 15 mg/kg), D8): 0%
parasitemia ([1]; Multidoses (D0-D4, total 15 mg/kg), D8, controls 67): 74%
percentage inhibition of the development of the parasite ([1]; Multidoses (D0-D4, total 15 mg/kg), D9): 0%
parasitemia ([1]; Multidoses (D0-D4, total 15 mg/kg), D9, controls 48): 67%
percentage inhibition of the development of the parasite ([1]; Multidoses (D0-D4, total 15 mg/kg), D10): 0%
parasitemia ([1]; Multidoses (D0-D4, total 15 mg/kg), D10, controls 1): 30%
duration of the action ([1]; after last injection on D4, multidose batch): about 3 days
effect on Plasmodium from D8 ([1]; from D8): apparently being no longer effected
parasitemia of monodose batch versus control batch ([1]; monodose batch, D4): no difference is observed
